Eight molecules from ChEMBL document CHEMBL1201862, “PubChem BioAssay data set” (2004) can be followed below.

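Following 48 hours of exposure in 96-well plates, responses at five concentrations were used to interpolate endpoints linearly. Here, GI50 denotes the concentration required for 50% inhibition of growth.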 Activity calls are given as the source filed them. No stated cut-off is given here; in the data, active = GI50 up to about 1.1 µM and inactive = higher.

Among the test systems are U-251; M14; MCF7; MOLT-4; SR; TK-10; HCT-15; IGROV-1; SK-MEL-5; Hs-578T; K562; ACHN; UACC-257; CCRF-CEM; OVCAR-5; MDA-MB-231; A498; NCI-H226; UACC-62; HCC 2998.
What all share (experiment): growth of human tumour cells (NCI), 48 h

Turning to `COc1ccc(/C=C2\C(=O)NC(=O)c3ccccc32)cc1OC`, the GI50 in the assay with U-251 was 11.8 µM (inactive); in the assay on M14 it was 57.5 µM (inactive); with MCF7, 56.9 µM (inactive); in the assay with MOLT-4 it was 5.77 µM (inactive); in the assay with SR, 2.42 µM (inactive); in the assay with TK-10, > 100 µM (inactive). In addition, the GI50 is 20.5 µM in the assay with HCT-15; 13.8 µM (inactive) in the assay with IGROV-1; 37.7 µM (inactive) with SK-MEL-5; 53.5 µM (inactive) in the assay on Hs-578T; 3.15 µM (inactive) in the assay on K562; 32.2 µM (inactive) in the assay with ACHN. For the same molecule, the GI50 in the assay with UACC-257 was > 100 µM (inactive); in the assay with CCRF-CEM, 1.09 µM (active); in the assay on OVCAR-5, 60.8 µM (inactive); with MDA-MB-231, 48.2 µM (inactive); in the assay on A498 it was > 66.5 µM (inactive); in the assay with NCI-H226, 49.4 µM (inactive). For the same molecule, the GI50 is 25.6 µM (inactive) with UACC-62 and > 46.6 µM (inactive) with HCC 2998.

Consider `O=[N+]([O-])c1cccc2nc3ccccc3c(NCCO)c12`, for which the GI50 in the assay with U-251 is 0.00281 µM (active); in the assay on M14, 0.000243 µM (active); with MCF7 it was 0.0021 µM (active); in the assay on MOLT-4, 0.00407 µM (active); in the assay with SR it was 2.36e-05 µM (active); in the assay with TK-10, 0.00269 µM (active). Also, the GI50 in the assay with HCT-15 was 0.00133 µM; in the assay on IGROV-1 it was 0.00269 µM (active); in the assay on SK-MEL-5, 0.00286 µM (active); in the assay on Hs-578T, 0.00684 µM (active); in the assay on K562, 0.000237 µM (active); in the assay with ACHN, 0.00151 µM (active). Further, the GI50 in the assay with UACC-257 is 0.00421 µM (active); in the assay with CCRF-CEM, 0.00989 µM (active); in the assay on OVCAR-5, 0.00219 µM (active); in the assay with MDA-MB-231 it was 0.00215 µM (active); with A498 it was 0.00383 µM (active); in the assay on NCI-H226, 0.00248 µM (active). Besides, the GI50 was 0.00237 µM (active) with UACC-62 and 0.00166 µM (active) with HCC 2998.

On to `N#Cc1c(O)c(/N=N/c2ccc(Cl)cc2)c(=O)n2c1[nH]c1ccccc12`, for which the GI50 was 37.5 µM (inactive) in the assay on U-251; 36 µM (inactive) with M14; 43.5 µM (inactive) in the assay on MCF7; 29.6 µM (inactive) with MOLT-4; 29.9 µM (inactive) with SR; 54 µM (inactive) in the assay on TK-10. In addition, the GI50 in the assay on HCT-15 was 28.1 µM; with IGROV-1 it was 73.1 µM (inactive); with SK-MEL-5, 53.7 µM (inactive); in the assay with Hs-578T, 52.1 µM (inactive); with K562, 32.6 µM (inactive); in the assay with ACHN, 36.1 µM (inactive). Moreover, the GI50 in the assay on UACC-257 was 52.1 µM (inactive); with CCRF-CEM, 31.2 µM (inactive); in the assay with OVCAR-5, 62.2 µM (inactive); in the assay with MDA-MB-231, 29.3 µM (inactive); in the assay on A498 it was 37.6 µM (inactive); in the assay with NCI-H226, 81.8 µM (inactive). For the same molecule, the GI50 in the assay on UACC-62 is 29.7 µM (inactive); in the assay on HCC 2998, 41.5 µM (inactive).

As to `O=C(COc1cc(=O)oc2ccccc12)c1ccccc1`, the GI50 was 17.7 µM (inactive) with U-251; 42 µM (inactive) with M14; > 100 µM (inactive) with MCF7; > 100 µM (inactive) with MOLT-4; > 100 µM (inactive) with SR; > 100 µM (inactive) in the assay on TK-10. The GI50 in the assay with HCT-15 was above 100 µM; with IGROV-1, 26.9 µM (inactive); in the assay with SK-MEL-5, 37.7 µM (inactive); in the assay with Hs-578T it was 24.9 µM (inactive); in the assay with K562 it was > 100 µM (inactive); in the assay with ACHN, 19.8 µM (inactive). The GI50 with UACC-257 is > 100 µM (inactive); with CCRF-CEM, 71.6 µM (inactive); in the assay with OVCAR-5, > 100 µM (inactive); in the assay with MDA-MB-231, 83.8 µM (inactive); in the assay with A498, 60.7 µM (inactive); in the assay on NCI-H226 it was 19.1 µM (inactive). The GI50 in the assay on UACC-62 is 16.7 µM (inactive); with HCC 2998, > 100 µM (inactive).

As for `C=CC[C@]1(C2=NC(C)(C)CO2)c2ccccc2-c2ccccc2[C@H]1C(C)=O`, the GI50 in the assay with U-251 is 8.15 µM (inactive); with M14, 7.76 µM (inactive); in the assay on MCF7 it was 4.22 µM (inactive); with MOLT-4, 9.27 µM (inactive); in the assay with SR, 3.27 µM (inactive); in the assay on TK-10 it was 12.5 µM (inactive). The GI50 in the assay with HCT-15 is 4.82 µM; in the assay on IGROV-1 it was 8.38 µM (inactive); in the assay on SK-MEL-5, 3.54 µM (inactive); with Hs-578T, 6.5 µM (inactive); in the assay with K562, 4.91 µM (inactive); in the assay with ACHN, 12.5 µM (inactive). Moreover, the GI50 in the assay with UACC-257 was 6.05 µM (inactive); in the assay on CCRF-CEM, 7.1 µM (inactive); in the assay with OVCAR-5, 19.9 µM (inactive); with MDA-MB-231, 14.2 µM (inactive); with A498 it was 7.67 µM (inactive); in the assay on NCI-H226, 14 µM (inactive). Further, the GI50 is 5.65 µM (inactive) in the assay with UACC-62 and 8.11 µM (inactive) with HCC 2998.

Regarding `COc1ccc(/C=C/C(=O)c2ccc(Br)cc2)cc1`, the GI50 is > 100 µM (inactive) in the assay on U-251; > 100 µM (inactive) in the assay with M14; 85.7 µM (inactive) in the assay on MCF7; 59.3 µM (inactive) in the assay with MOLT-4; 84.1 µM (inactive) with SR; > 100 µM (inactive) with TK-10. Further, the GI50 in the assay with HCT-15 was above 100 µM; with IGROV-1, > 100 µM (inactive); with SK-MEL-5, > 100 µM (inactive); with Hs-578T, 64.7 µM (inactive); in the assay on K562, > 100 µM (inactive); with ACHN it was > 100 µM (inactive). The GI50 in the assay on UACC-257 is > 10 µM (inactive); in the assay on CCRF-CEM it was > 100 µM (inactive); with OVCAR-5 it was 18.4 µM (inactive); with MDA-MB-231 it was > 100 µM (inactive); in the assay with A498, > 100 µM (inactive); with NCI-H226, > 100 µM (inactive). Further, the GI50 with UACC-62 and with HCC 2998 was > 100 µM (inactive) each time.

For `N#CC(=C1CCCCC1)c1nc2ccccc2o1`, the GI50 in the assay on U-251 is 57.9 µM (inactive); with M14, 80.7 µM (inactive); in the assay on MCF7, 53.1 µM (inactive); with MOLT-4, > 100 µM (inactive); in the assay on SR it was 37.9 µM (inactive); with TK-10 it was > 100 µM (inactive). For the same molecule, the GI50 was 49.4 µM with HCT-15; 83 µM (inactive) in the assay with IGROV-1; 41.4 µM (inactive) in the assay with SK-MEL-5; 58.7 µM (inactive) with Hs-578T; 69.8 µM (inactive) in the assay on K562; > 100 µM (inactive) in the assay with ACHN. In addition, the GI50 in the assay with UACC-257 is > 100 µM (inactive); with CCRF-CEM it was 49.1 µM (inactive); with OVCAR-5, > 100 µM (inactive); with MDA-MB-231, > 100 µM (inactive); in the assay with A498 it was > 100 µM (inactive); in the assay with NCI-H226, 56.2 µM (inactive). For the same molecule, the GI50 is 68.9 µM (inactive) in the assay with UACC-62 and 50 µM (inactive) in the assay on HCC 2998.

For the molecule `Oc1ccccc1C(Sc1nc2ccccc2s1)Sc1nc2ccccc2s1`, the GI50 is 57.7 µM (inactive) in the assay on U-251; > 100 µM (inactive) in the assay with M14; > 100 µM (inactive) in the assay with MCF7; 44.2 µM (inactive) with MOLT-4; 43.7 µM (inactive) with SR; > 100 µM (inactive) with TK-10. Also, the GI50 with HCT-15 was 51.3 µM; with IGROV-1, 29.9 µM (inactive); in the assay with SK-MEL-5, 44 µM (inactive); with Hs-578T it was 24.1 µM (inactive); in the assay with K562 it was 56.2 µM (inactive); in the assay on ACHN, > 100 µM (inactive). The GI50 is > 100 µM (inactive) with UACC-257; 26.5 µM (inactive) in the assay on CCRF-CEM; > 100 µM (inactive) in the assay with OVCAR-5; > 100 µM (inactive) in the assay on MDA-MB-231; > 100 µM (inactive) in the assay with A498; 36.3 µM (inactive) with NCI-H226. For the same molecule, the GI50 in the assay on UACC-62 was 69.2 µM (inactive); in the assay on HCC 2998 it was > 100 µM (inactive).
